Source: patent publication US6429288B1, “Peptides containing an arginine mimetic for the treatment of bone metabolic disorders, their production, and drugs containing these compounds” (Roche Diagnostics GmbH, priority 1997, dated 2002)

Tested on: primary cultures of osteoblasts from fetal rat calvarias
Test: in vitro DNA-synthesis assay
Assay type: cell-based
Procedure: Compounds of general formula (I) were tested in an in vitro DNA-synthesis assay. The cells used were primary cultures of osteoblasts from fetal rat calvarias. The experiments were performed in an analogous manner as published in Pfeilschifter et al., Endocrinology 126, 703 (1990).

| Substance | Biological activity in % compared to control (100%) (0.001 μg/ml) [%] | Biological activity in % compared to control (100%) (0.01 μg/ml) [%] | Biological activity in % compared to control (100%) (0.1 μg/ml) [%] | Biological activity in % compared to control (100%) (1.0 μg/ml) [%] | Biological activity in % compared to control (100%) (10 μg/ml) [%] |
| --- | --- | --- | --- | --- | --- |
| Ada-Aba-W | 173 | 184 | 228 | 223 | 261 |
| Ada-Ava-W | 116 | 152 | 182 | 183 | 229 |
| Ada-SAW | 122 | 148 | 199 | 162 | 188 |
